Laboratory results: patent US20220153739A1, “OPIOID RECEPTOR MODULATOR AND USE THEREOF” (Arriba BioPharma, Inc., priority 2020, published 2022)

What was measured:
[1] = Bidirectional permeability in Caco-2 cells; assay type: in vitro ADME; conditions: human, 120 minutes; for Papp B→A at 120 min, 2 μM: Caco-2, Caco-2, B to A direction, read-out: mean apparent permeability coefficient (Papp), B to A
Experimental: (§1) The objective of this study was to determine the bidirectional permeability and efflux ratio of compound D in the Caco-2 cells. Caco-2 cells (purchased from ATCC) at passage number 49 were seeded on 96-well transport inserts and cultured for 22 days before being used for the transport experiment. Compound D was dosed bi-directionally at 2 μM. Samples were taken at 0 and 120 minutes after incubation and analyzed by LC-MS/MS. […] Therefore, both the efflux ratios could not be calculated.

Caco-2 cells = assay: Bidirectional permeability in Caco-2 cells; assay type: in vitro ADME
Experimental: as §1

[2] = Metabolic stability in SD rat liver microsomes; assay type: in vitro ADME
Experimental: (§2) The metabolic stability of Compound D in SD rat and human liver microsomes were measured One (1) μM of Compound D was incubated with SD rat or human liver microsomes with NADPH in a water bath or tecan at 37° C. for up to 60 min. All samples were monitored using LC-MS/MS.

male CD-1 mice [3] = assay: Stress induced fecal output; assay type: in vivo; conditions: for 0 h (Stools), mean / 0-1 h (Stools), mean / 1-2 h (Stools), mean / 2-4 h (Stools), mean: 50 mg/kg PO, stress induced
Text: The animals used in the studies are male CD-1 mice, average weight about 25 to 35 g, with an average of 5 mice per dose group. The mice were generally housed in colony housing where they are housed 4 per cage in polycarbonate 20 cages with access to food and water ad lib. On the day of the experiment they are transported to the procedure room where they were individually housed in metabolism cage (CAT003) after intragastric administration of Compound D at 50mpk, a reference compound of Formula II (“ORP-101”), and the vehicle alone. Compound D (“ALB-215896”) and the reference compound were each weighed and dissolved in 2.58 ml of de-ion water, mixed by vortex, to prepare the compound D and reference compound solutions at 5 mg/mL.
During the test, the animals were fasted with free access to water. The wire mesh bottomed tall cage creates a novel environment which induces stress in mice. Stool collection and the number of pellets excreted were determined 0, 1, 2, 4 hours after administration. […] Details data of this study is provided below in Table 1.

[4] = Metabolic stability in human liver microsomes; assay type: in vitro ADME
Experimental: as §2

male CD-1 mice [5] = assay: Post-inflammatory altered GI transit time (mustard oil), fecal output; assay type: in vivo; conditions: for 0 h (Stools), mean / 1 h (Stools), mean / 2 h (Stools), mean / 4 h (Stools), mean: 50 mg/kg PO, post-inflammatory
Experimental: This test was designed to measure the effect of test substance on gastrointestinal hypersensitivity that occurs following inflammation. Post-inflammatory altered GI transit was induced in male CD-1 mice by injecting freshly opened oil of mustard (95% pure allyl isothiocyanate, 0.5% in ethanol). The effect of stress on GI is motility is evaluated 4 weeks later, when although there is no longer inflammation, the GI tract remains in a hypersensitive state. Effect of test substance was measured after oral administration (intragastric gavage) and subjecting the animals to environmental stress by housing them in metabolism cage. During the test, the animals were allowed access to water ad lib. The wire mesh bottomed tall cage creates a novel environment, which induces stress in mice. The number of pellets excreted was determined at 1 h, 2 h and 4 h after administration. Compound D (ALB-215896) and ORP-101 were each weighed and dissolved in 2.58 ml of de-ion water, mixed by vortex, to prepare the compound D and reference compound solutions at 5 mg/mL.

[6] = 1 μM, NADPH, 37° C., up to 60 min, read-out: half-life (T1/2)
[7] = read-out: intrinsic clearance (CLint(liver))

| Structure (SMILES) | Papp B→A at 120 min, 2 μM [1] [×10⁻⁶ cm/s] | 0 h (Stools), mean (male CD-1 mice [3]) [Stools] | 0-1 h (Stools), mean (male CD-1 mice [3]) [Stools] | 1-2 h (Stools), mean (male CD-1 mice [3]) [Stools] | 2-4 h (Stools), mean (male CD-1 mice [3]) [Stools] | 0 h (Stools), mean (male CD-1 mice [5]) [Stools] | 1 h (Stools), mean (male CD-1 mice [5]; 1 h) [Stools] | 2 h (Stools), mean (male CD-1 mice [5]) [Stools] | 4 h (Stools), mean (male CD-1 mice [5]) [Stools] | other results |
| --- | --- | --- | --- | --- | --- | --- | --- | --- | --- | --- |
| COc1ccc2c3c1O[C@@H]1[C@@]4(OCCOc5ccc6c7c5OC5C8(OC)CC[C@@]9(CC8[C@](C)(O)C(C)(C)C)[C@@H](C6)N(CC6CC6)CCC759)CC[C@@]5(C[C@@H]4[C@](C)(O)C(C)(C)C)[C@@H](C2)N(CC2CC2)CC[C@]315 (stereo in doubt) [Compound D, 2-((4R,4aS,6R,7R,7aR,12bS)-9-(2-(((4R,4aS,6R,7R,7aS,12bS)-9-(Methyloxy)-3-(cyclopropylmethyl)-6-(2-hydroxy-3,3-dimethylbutan-2-yl)-1,2,3,4,5,6 hexahydro-4a,7-ethano-4,12-methanobenzofuro[3,2-e]isoquinolin-7(7aH)yl)oxy)ethoxy)-3-(cyclopropylmethyl)-7-methoxy-1,2,3,4,5,6,7,7a-octahydro-4a,7ethano-4,12-methanobenzofuro[3,2-e]isoquinolin-6-yl)-3,3-dimethylbutan-2-ol] | < 0.4 | 0 | 2.4 | 1.4 | 2 | 0.00 | 1.49 | 1.59 | 2.77 | Papp A→B at 120 min, 2 μM ([1]; Caco-2, apical to basolateral, 2 μM, read-out: mean apparent permeability coefficient (Papp), A to B): < 0.48 ×10⁻⁶ cm/s; mean apparent permeability coefficient (Papp), B to A (Caco-2 cells; Caco-2, B to A direction, 120 minutes): < 5e-07 cm/s; substrate of transporters (Caco-2 cells; Caco-2, from B to A Papp): poor and no substrate of transporters; permeability classification (Caco-2 cells; across the Caco-2 cell monolayer): low permeability; metabolic stability in words [2]: moderately metabolized; half-life at 1 μM [2, 6]: 87.6 min; CLint scaled at 1 μM [2, 7]: 28.5 mL/min/kg; fecal output versus vehicle and reference compound, in words (male CD-1 mice [3]; oral 50mpk, 1 h, 2 h and 4 h time points): significantly reduced the fecal output; metabolic stability in words [4]: stably metabolized; half-life at 1 μM [4, 6]: 82.1 min; CLint scaled at 1 μM [4, 7]: 15.2 mL/min/kg; gastrointestinal motility measured by fecal output, in words (male CD-1 mice [5]; 50mpk, 1 h, 2 h, and 4 h time points, post-inflammatory model): significantly decreased gastrointestinal motility |
| CO[C@]12CC[C@@]3(C[C@@H]1[C@](C)(O)C(C)(C)C)[C@H]1Cc4ccc(OCCOc5ccc6c7c5O[C@H]5C78CCN(CC7CC7)[C@H](C6)[C@]86CC[C@]5(OC)[C@@H]([C@](C)(O)C(C)(C)C)C6)c5c4[C@@]3(CCN1CC1CC1)[C@@H]2O5 [ORP-101, reference compound] | < 0.13 | 0 | 3.8 | 3 | 2.8 | 0 | 1.75 | 2.00 | 3.75 | Papp A→B at 120 min ([1]; Caco-2, apical to basolateral, read-out: mean apparent permeability coefficient (Papp), A to B): < 0.14 ×10⁻⁶ cm/s |
